Laboratory results published in patent US10202349B2, “Asymmetric bis-acridines with antitumour activity and their uses” (POLITECHNIKA GDAŃSKA, priority 2015, dated 2019).

Columns and labels:
DU-145 = experiment: Cytotoxic activity in vitro, SRB; type: cell-based, human
Protocol: (§1) Cytotoxic activity tests in-vitro. A measure of the cytotoxic activity of bis-acridines are the EC50 (concentration of studied compounds at which 50% inhibition of proliferation of tumorous is observed) of the evaluated compounds that inhibit the growth of 50% of cells in relation to a control. The cytotoxic activity of the compounds was determined using SRB, recommended by the US National Cancer Institute (USA). As the spectrum of 13 human origin neoplasms in bis-acridine screening studies, we used the following: HT 29 [CRC], HCT 116 [CRC], H 460 [lung cancer], MDA MB 231 [breast cancer], MCF-7 [breast cancer], UM UC3 [bladder cancer], PC 3 [prostate cancer], DU 145 [ prostate cancer], Panc-1 [pancreatic cancer], Mia Pa Ca 2 [pancreatic cancer], BXPC 3 [pancreatic cancer], AsPC1 [pancreatic cancer], Capan-2 [pancreatic cancer]. […] The DU-145 results were substantially a basis for selecting compounds and neoplasms for screening. The next neoplasms most sensitive to the cytotoxic activity of bis-acridines was the CRC HCT-116, as well as breast cancer MBA-MB-231. […] The cytotoxic activity of the remaining bis-acridines is significant or high (EC50 in the range from 1 to 0.04 μM). […] Panc-1, MiaPaCa-2 and Capan-2 are more sensitive, whereas for AsPC-1 and BxPC-3 this activity is at least an order of magnitude smaller.

HCT-116 = experiment: Cytotoxic activity in vitro, SRB; type: cell-based, human
Protocol: as §1

H-460 = experiment: Cytotoxic activity in vitro, SRB; type: cell-based, human
Protocol: as §1

HT-29 = experiment: Cytotoxic activity in vitro, SRB; type: cell-based, human
Protocol: as §1

UM-UC-3 = experiment: Cytotoxic activity in vitro, SRB; type: cell-based, human
Protocol: as §1

MCF-7 = experiment: Cytotoxic activity in vitro, SRB; type: cell-based, human
Protocol: as §1

PANC 1 = experiment: Anti-neoplasmic activity against xenograft in hairless mice; type: in vivo; details: for TGI [%] [100 − (ΔVT/ΔVC × 100]: series 30, i.v., day 52
Protocol: For this, we selected 26 bis-acridines, mainly on the basis of the cytotoxic activity. We performed 34 series of experiments evaluating the anti-neoplasmic activity on xenografts in hairless mice against eleven neoplasms of human origin from the determination of the cytotoxic activity of bis-acridines (table 4). The tumours were injected subcutaneously to hairless mice of 5-weeks, female Crl:Nu-Foxnlnu, at a rate of 5×10^6 cells per mouse. After attaining a tumour of about 100 mm^3 or 200 mm^3 in depending on the neoplasm and its take this was 8 or even 30 days, and began therapy. On the day therapy was initiated, we randomised the animals and divided them into groups. Test groups were from 6 to 8 animals, and controls had from 8 to 14 animals. Each compound was tested at three differentiated doses.
The preparations were administered intravenously (i.v.) twice weekly for 4 weeks (thrice weekly for rapidly growing neoplasms). In several series, we used intraperitoneally (i.p.) administration in the same scheme. […] The therapeutic efficacy of the tested formulations was evaluated by measuring tumour size (length and width measurements of the tumour on the basis of the calculated tumour volume). Tumours were measured twice weekly for a period of about 30 days for fast-growing neoplasms, as well as about 60 days for the slow-growing neoplasms. The tumour volume in the treated groups compared with the control group. On this basis, inhibition of tumour growth was calculated using the following formula: Tumour growth inhibition TGI [%]=100−(ΔVT/ΔVC×100) Where ΔVT—is mean the tumour volume in animals in the group treated at the given day of treatment, minus the mean tumour volume in animals at the date of commencement of therapy. ΔVC is mean tumour volume in animals in the control group on a given day of treatment minus the average tumour volume of animals on the date of commencement of therapy. The results of the tests of anti-neoplasmic activity conducted in xenografts of human-origin neoplasms in mice are shown in Table 5.
The result above was accepted only in the case that the dose administered in all animals or more than half of the animals that survived to the end of the experiment. In addition, the evaluation was the day that the administration of the preparation was already completed: for the fast-growing neoplasms (eg. HCT116) this was in the days from 15 to 26, while for slow-growing neoplasms (eg. Panc 1) on a day from 34 to 60. […] In addition, the maximum inhibition of neoplasms could be identified in the day, in which there were no factors that could change the value TGI value.
Such factors may include: a significant decrease in body weight, the appearance of observable toxaemia, excessive rate of tumour growth: tumours in excess of 2000 mm^3 and all animals alive on that day.

MiaPaCa-2 = experiment: Cytotoxic activity in vitro, SRB; type: cell-based, human
Protocol: as §1

PANC-1 = experiment: Cytotoxic activity in vitro, SRB; type: cell-based, human
Protocol: as §1

MDA-MB-231 = experiment: Cytotoxic activity in vitro, SRB; type: cell-based, human
Protocol: as §1

`Cc1ccc([N+](=O)[O-])c2c(NCCCNCCCNc3ccc([N+](=O)[O-])c4[nH]c5ccc(O)cc5c(=O)c34)c3ccccc3nc12` [C-2021, 9-{N-[(7-hydroxy-4-nitro-9(10H)acridono-1-yl)aminopropyl]-aminopropylamino}-4′-methyl-1′-nitroacridine] was tested, and the EC50 (DU-145) was 78 nM, the EC50 (HCT-116) was 88 nM and the EC50 (H-460) was 73 nM. The EC50 (HT-29) was 129 nM.

`O=c1c2cc(O)ccc2n2nnc3ccc(NCCCN4CCN(CCCNc5c6ccccc6nc6cccc([N+](=O)[O-])c56)CC4)c1c32` [C-2047, 1-[3-(8-hydroxy-6H-[1,2,3]triazolo[4,5,1-de]-acridin-6-on-5-yl)aminopropyl]-4-[3′-(1′-nitroacridin-1-yl)-aminopropyl]piperazine] gave an EC50 (DU-145) of 17 nM, an EC50 (HCT-116) of 17 nM and an EC50 (H-460) of 36 nM. It also gave an EC50 (HT-29) of 29 nM.

`CN(CCCNc1c2ccccc2nc2cccc([N+](=O)[O-])c12)CCCNc1ccc2nnn3c4ccc(O)cc4c(=O)c1c23` [C-2052, 9-{N-[(8-hydroxy-6H-[1,2,3]triazolo[4,5,1-de]-acridin-6-on-5-yl)aminopropyl]-N-methylaminopropylamino}-1′-nitroacridine] was tested, and the EC50 (UM-UC-3) was 155 nM, the EC50 (DU-145) was 28 nM and the EC50 (H-460) was 74 nM. The EC50 (MCF-7) was 220 nM, the “activity against Panc-1 pancreatic cancer” value (PANC 1; in words, scale of b125: TGI≥80% as high activity) was “high level of activity” and the “TGI [%] [100 − (ΔVT/ΔVC × 100]” value (PANC 1; single 1 mg/kg, total 8 mg/kg) was 39%.

With `Cc1ccc([N+](=O)[O-])c2c(NCCCN3CCN(CCCNc4ccc5nnn6c7ccc(O)cc7c(=O)c4c56)CC3)c3ccccc3nc12` [C-2057, 1-[3-(8-hydroxy-6H-[1,2,3]triazolo[4,5,1-de]-acridin-6-on-5-yl)aminopropyl]-4-[3′-(4′-methyl-1′-nitroacridin-1-yl)-aminopropyl]piperazine] the EC50 (DU-145) was 34 nM.

`Cc1ccc([N+](=O)[O-])c2c(NCCCN(C)CCCNc3ccc([N+](=O)[O-])c4[nH]c5ccc(O)cc5c(=O)c34)c3ccccc3nc12` [C-2019, 9-{N-[(7-hydroxy-4-nitro-9(10H)acridono-1-yl)aminopropyl]-N-methylaminopropylamino}-4′-methyl-1′-nitroacridine] was tested, and the EC50 (DU-145) was 73 nM, the EC50 (H-460) was 46 nM and the EC50 (HT-29) was 200 nM.

In the case of `Cc1ccc([N+](=O)[O-])c2c(NCCCNCCNCCCNc3ccc([N+](=O)[O-])c4[nH]c5ccccc5c(=O)c34)c3ccccc3nc12` [C-2039, 9-[N-(4-nitro-9(10H)acridono-1-yl)-aminopropylaminoethylamino-propylamino]-4′-methyl-1′-nitroacridine], the EC50 (DU-145) is reported as 88 nM, the EC50 (MiaPaCa-2) is reported as 110 nM and the EC50 (PANC-1) is reported as 142 nM.

Work on `O=c1c2ccccc2[nH]c2c([N+](=O)[O-])ccc(NCCCNCCNCCCNc3c4ccccc4nc4cccc([N+](=O)[O-])c34)c12` [C-2040, 9-[N-(4-nitro-9(10H)acridono-1-yl)-aminopropylaminoethylamino-propylamino]-1′-nitroacridine] yielded an EC50 (DU-145) of 55 nM, an EC50 (MiaPaCa-2) of 46 nM and an EC50 (PANC-1) of 60 nM.

Work on `Cc1ccc([N+](=O)[O-])c2c(NCCCN(C)CCCNc3ccc(C)c4[nH]c5ccccc5c(=O)c34)c3ccccc3nc12` [C-2023, 9-{N-[(4-methyl-9(10H)-acridono-1-yl)aminopropyl]-N-methylaminopropylamino}-4′-methyl-1′-nitroacridine] yielded an EC50 (DU-145) of 190 nM, an EC50 (HCT-116) of 120 nM and an EC50 (H-460) of 71 nM. For the same molecule, the EC50 (HT-29) was 123 nM.

`Cc1ccc([N+](=O)[O-])c2c(NCCCN(C)CCCNc3ccc4nnn5c6ccc(O)cc6c(=O)c3c45)c3ccccc3nc12` [C-2056, 9-{N-5-[(8-hydroxy-6H-[1,2,3]triazolo[4,5,1-de]-acridin-6-on-5-yl)aminopropyl]-N-methylaminopropylamino}-4′-methyl-1′-nitroacridine] showed an EC50 (DU-145) of 38 nM.

For `Cc1ccc([N+](=O)[O-])c2c(NCCCN3CCN(CCCNc4ccc5nnn6c7ccccc7c(=O)c4c56)CC3)c3ccccc3nc12` [C-2058], the EC50 (DU-145) was 42 nM.

`O=c1c2ccccc2n2nnc3ccc(NCCCNCCCNc4c5ccccc5nc5cccc([N+](=O)[O-])c45)c1c32` [C-2063, 9-{N-5-[(6H-[1,2,3]triazolo[4,5,1-de]-acridin-6-on-5-yl)aminopropyl]-aminopropylamino}-1′-nitroacridine] showed an EC50 (DU-145) of 4.6 nM and an EC50 (H-460) of 24 nM.

`Cc1ccc([N+](=O)[O-])c2c(NCCNCCNc3ccc(C)c4[nH]c5ccccc5c(=O)c34)c3ccccc3nc12` [C-2016, 9-{N-[(4-methyl-9(10H)-acridono-1-yl)aminoethyl]ethylamino}-4′-methyl-1′-nitroacridine] was tested, and the EC50 (DU-145) was 599 nM and the EC50 (HT-29) was 413 nM.

Work on `O=c1c2ccccc2n2nnc3ccc(NCCCN4CCN(CCCNc5c6ccccc6nc6cccc([N+](=O)[O-])c56)CC4)c1c32` [C-2048, 1-[3-(6H-[1,2,3]triazolo[4,5,1-de]-acridin-6-on-5-yl)aminopropyl]-4-[3′-(1′-nitroacridin-1-yl)-aminopropyl]piperazine] yielded an EC50 (UM-UC-3) of 120 nM, an EC50 (DU-145) of 22 nM and an EC50 (HCT-116) of 41 nM. The EC50 (HT-29) was 152 nM, the EC50 (MCF-7) was 103 nM and the EC50 (MDA-MB-231) was 33 nM. The “TGI [%] [100 − (ΔVT/ΔVC × 100]” value (PANC 1; single 4 mg/kg, total 24 mg/kg) was 86%.

For `Cc1ccc([N+](=O)[O-])c2c(NCCNCCNCCNc3ccc([N+](=O)[O-])c4[nH]c5ccccc5c(=O)c34)c3ccccc3nc12` [C-2032, 9-[N-(4-nitro-9(10H)acridono-1-yl)-aminoethylaminoethylamino-ethylamino]-4′-methyl-1′-nitroacridine], the EC50 (UM-UC-3) was 730 nM, the EC50 (DU-145) was 1690 nM and the EC50 (PANC-1) was 1310 nM. For the same molecule, the EC50 (HCT-116) was 850 nM.

With `Cc1ccc([N+](=O)[O-])c2c(NCCNCCNCCNc3ccc(C)c4[nH]c5ccccc5c(=O)c34)c3ccccc3nc12` [C-2024, 9-[N-(4-methyl-9(10H)acridono-1-yl)-aminoethylaminoethylamino-ethylamino]-4′-methyl-1′-nitroacridine] the EC50 (DU-145) was 417 nM, the EC50 (HCT-116) was 1270 nM and the EC50 (H-460) was 370 nM. It also gave an EC50 (HT-29) of 1180 nM.

In the case of `CN(CCCNc1c2ccccc2nc2cccc([N+](=O)[O-])c12)CCCNc1ccc2nnn3c4ccccc4c(=O)c1c23` [C-2060, 9-{N-5-[(6H-[1,2,3]triazolo[4,5,1-de]-acridin-6-on-5-yl)aminopropyl]-N-methylaminopropylamino}-1′-nitroacridine], the EC50 (DU-145) is reported as 150 nM and the EC50 (H-460) is reported as 185 nM.

In the case of `Cc1ccc(NCCCNCCCNc2c3ccccc3nc3cccc([N+](=O)[O-])c23)c2c(=O)c3ccccc3[nH]c12` [C-2038, 9-{N-[(4-methyl-9(10H)-acridono-1-yl)aminopropyl]propylamino}-1′-nitroacridine], the EC50 (DU-145) is reported as 184 nM, the EC50 (MiaPaCa-2) is reported as 280 nM and the EC50 (PANC-1) is reported as 377 nM. It also gave an EC50 (MCF-7) of 228 nM.

Molecule `Cc1ccc([N+](=O)[O-])c2c(NCCCN3CCN(CCCNc4ccc([N+](=O)[O-])c5[nH]c6ccc(O)cc6c(=O)c45)CC3)c3ccccc3nc12` [C-2020] has an EC50 (DU-145) of 61 nM, an EC50 (H-460) of 47 nM and an EC50 (HT-29) of 233 nM.
